One compound from patent EP4725957A1, “GROUP OF CYCLIC ALKALINE LIPOPEPTIDE COMPOUNDS, AND PREPARATION METHOD THEREFOR AND USE THEREOF” (Institute of Medicinal Biotechnology, Chinese Academy of …, priority 2023, dated 2024) can be followed below.

The nature of data set [1]: Nephrotoxicity assay: in vitro cytotoxicity of HK-2 cells by CCK-8 assay. Format: cell-based. The settings on record: human, HK-2 cells (human renal), 72 h incubation with drug-containing medium. The method in brief:
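Compounds in sterile water, diluted to final 500, 250, 200, 100, 50, 25 and 12.5 µg/mL, were applied for 72 h to human HK-2 kidney cells. Absorbance at 450 nm after 3 h CCK-8 gave viability against untreated wells, and IC50 came from logarithmic regression; three replicates.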

The test system of data set [2] is Pseudomonas aeruginosa ATCC27853. The data set can be described thus: In vivo antibacterial (protection) test in infected mice. Conditions: infected ICR mice; for mortality rate: 7 days observation. An excerpt:
Pseudomonas aeruginosa ATCC27853 was selected for the determination of in vivo antibacterial activity.
One day before infection, the test bacteria were inoculated onto the corresponding nutrient agar plates and cultured overnight. On the day of infection, single colonies grown on the plates were picked and suspended in sterile normal saline, and the suspension was mixed thoroughly to obtain the original bacterial solution. The bacterial solution was then adjusted to the required concentration with 5% dried yeast powder and prepared freshly prior to use.
Healthy ICR mice were randomly divided into groups, with 5 mice per group, half male and half female. Bacterial solutions of different dilutions were aspirated and injected intraperitoneally into mice at a volume of 0.5 mL per 20 g of body weight. The mortality of mice was recorded within 7 days after infection. The minimum bacterial dose causing 100% mortality in mice was defined as the minimum lethal dose (MLD), which was used as the infection dose for the in vivo protection test.
Drug administration was performed via tail vein injection at 2 h, 8 h, 24 h, and 30 h after infection, with a total of 4 administrations, and the administration volume was 20 mL/kg. For the preparation of drug solutions, Compound 7, together with the control drugs polymyxin B and meropenem, were dissolved in normal saline to the required concentrations for tail vein injection, and all solutions were prepared freshly prior to use.
In the preliminary test, the drug dose concentrations that caused 100% mortality and no mortality in mice after infection with the tested bacteria were determined. Based on this dose range, 4-5 dose groups were established, with a dose ratio of 1:0.5 to 1:0.8 between adjacent groups.
Mice were randomly grouped according to body weight, with 8 mice per group (half male and half female). Each mouse was intraperitoneally infected with the test bacterial solution at a volume of 0.5 mL per 20 g of body weight, followed by tail vein injection at 2 h, 8 h, 24 h, and 30 h after infection. Mice in the blank control group were not infected with bacterial solution but were only given an equal volume of vehicle at an administration volume of 20 mL/kg. The mortality of mice was observed and recorded for 7 consecutive days.
The minimum lethal bacterial concentration of Pseudomonas aeruginosa ATCC27853 for intraperitoneal infection in mice was 4.2 × 10^2 CFU/mL, which was used as the infection dose in the formal test.
Mice in the infection control group were intraperitoneally inoculated with Pseudomonas aeruginosa ATCC27853 bacterial solution at the MLD concentration ([…]). Infection symptoms began to appear 3-4 hours after inoculation, and all 8 animals died within 48 hours (8/8), with a mortality rate of 100%.

The mark [3] stands for this setting: tail vein twice daily for 2 days, Bliss method.

Bridge positions count the residues as written; N and C are the ends. Square brackets hold non-standard residues; d marks the D form. Peptide text beside a SMILES is read from it. * marks the point of attachment. Heptanoyl(6-Me) = CC(C)CCCCC(=O)*; Dab = NCC[C@H](N)C(=O)O; Dap = NC[C@H](N)C(=O)O

Take `CC(C)CCCCC(=O)N[C@@H](CCN)C(=O)N[C@H](C(=O)N[C@@H](CN)C(=O)N[C@H]1CCNC(=O)[C@H]([C@@H](C)O)NC(=O)[C@H](CCN)NC(=O)[C@H](CCN)NC(=O)[C@H]([C@@H](C)O)NC(=O)[C@@H](Cc2ccccc2)NC(=O)[C@H](CCN)NC1=O)[C@@H](C)O` [Compound 7, 6-methylheptanoyl-Dab-Thr-Dap-ring(4-10)[Dab-Dab-D-Phe-Thr-Dab-Dab-Thr]] ({Heptanoyl(6-Me)}-[Dab]T[Dap][Dab][Dab][dF]T[Dab][Dab]T; lactam 4-C): the IC50 at 72 h in data set [1] is more than 500 µg/mL. In addition, the mortality rate in data set [2] (3.4 mg/kg tail vein twice daily for 2 days) was 100%; in data set [2] (4.9 mg/kg tail vein twice daily for 2 days) it was 87.5%; in data set [2] (7 mg/kg tail vein twice daily for 2 days) it was 37.5%; in data set [2] (10 mg/kg tail vein twice daily for 2 days), 0%. Besides, the ED5 in data set [2] (setting [3]) was found to be 4.54 mg/kg. Moreover, the ED50 in data set [2] (setting [3]) is recorded as 6.38 mg/kg. Also, the ED95 in data set [2] (setting [3]) is 8.96 mg/kg.

Broadly, the IC50 is the concentration at which inhibition is half-maximal. By ED50 is commonly meant the midpoint of the dose-response relation. Read a low ED50 as greater potency.
